Experimental findings from US20090060984A1, “ANIONIC SURFACTANTS LETHAL TO GRAM-POSITIVE BACTERIA” (priority 2007, published 2009) are described below.

For one test, the system named is Staphylococcus aureus. The experiment in a line: Growth on surfactant/TSA agar plates. The format is cell-based.
For a further test, the system named is Streptococcus viridans. Briefly: Growth on surfactant/TSA agar plates. The settings on record: Streptococcus viridans strain EM8. The format is cell-based.
The test system of a further test is Streptococcus bovis. The experiment in a line: Growth on surfactant/TSA agar plates. The format is cell-based. Conditions: Streptococcus bovis strain EM12.
In another test the test system is Streptococcus pyogenes. Briefly: Growth on surfactant/TSA agar plates. The format is cell-based. Conditions: Streptococcus pyogenes strain EM14.
Another test has as its system Streptococcus agalactiae. The experiment in a line: Growth on surfactant/TSA agar plates. The format is cell-based. The settings on record: Streptococcus agalactiae strain EM13.
The subject of the next test is Micrococcus luteus. The experiment in a line: Growth on surfactant/TSA agar plates. The format is cell-based. Conditions: Micrococcus luteus strain EM17.
The test system of the next test is Bacillus subtilis. Briefly: Growth on surfactant/TSA agar plates. The format is cell-based.
For test [1], the system named is Staphylococcus epidermidis. Briefly: Growth on surfactant/TSA agar plates. The format is cell-based. Conditions: Staphylococcus epidermidis strain EM3/ATCC12228.
Another test concerns Enterococcus fecalis. The experiment in a line: Growth on surfactant/TSA agar plates. The format is cell-based.
A further test concerns Serratia marcescens. Briefly: Growth on surfactant/TSA agar plates. The settings on record: the one Gram-negative not resistant. The format is cell-based. As for the experimental part:
This solution was then aliquoted into sterile petri dishes, approximately 25 mL per plate, and allowed to solidify. The organisms were grown in 5 mL of Trypticase Soy Broth. The sterile broth was inoculated with a single isolated colony from a stock culture and allowed to incubate in a shaking water bath at 37° C. for 8-10 hours. The estimated concentration was about 10^9 CFU/mL. Some plates were tested with a 1:100 dilution of these cultures to arrive at an approximate concentration of 10^7 CFU/mL. Then, 10 μL of each overnight culture was pipetted directly onto the surface of the surfactant/TSA plates, which were then allowed to incubate at 37° C. for 24 hours. Results were based on the presence or absence of bacterial growth on the surface of the agar.

A further test relates to B. subtilis. The experiment in a line: Sodium surfactant polyurethane coated microscope slides, surviving bacteria. Conditions: for CFU/mL B. subtilis: 30% sodium surfactant polyurethane coated microscope slides, two data sets.
The subject of test [2] is S. aureus. The description is as above. The settings on record: for CFU/mL S. aureus: 30% sodium surfactant polyurethane coated microscope slides, two data sets.
In another test the test system is E. coli. The format is cell-based, Escherichia coli. The settings on record: 24 h contact time. As for the experimental part:
Escherichia coli ATCC 11229 (Culti-loops, Remel Europe, Dartford, Kent, UK) and Pseudomonas aeruginosa ATCC 15442 (Cuti-loops, Remel Europe, Dartford, Kent, UK) were selected as model Gram-negative organisms for the challenge testing of the antimicrobial coatings. Each bacterial strain was streaked for isolated colonies on Tryptic Soy Agar (TSA) plates (Difco, Becton Dickinson, Sparks, Md., U.S.A.) and incubated at 37° C. for 12 to 18 hours. Broth cultures were prepared by first picking 1-2 isolated colonies from TSA plates and inoculating 5 mL Tryptic Soy Broth (TSB; Difco, Becton Dickinson, Sparks, Md., U.S.A.) in a 16 mm test tube. This culture was grown in a shaking water bath at 150 RPM for 8 hours at 37° C. After the eight hours, 125 μL of this culture was added to 50 mL of TSB in a side-arm Klett flask and grown for approximately 8 hours in shaking water bath (150 RPM) at 37° C. The bacterial broths were grown to an A590 of 1.2-1.5, which correlated to approximately 10^9 CFU (colony forming units)/mL. 25 mL of this broth were transferred to a sterile 30 mL Oakridge tube and centrifuged at 12,000×g for 10 minutes at 4° C. (Sorval SS34 rotor) to pelletize the bacteria. The bacterial pellet was washed once and resuspended in 25 mL of phosphate buffer solution (PBS; BBL, FTA Hemaglutination Buffer, Becton Dickinson, Sparks, Md., U.S.A.). The suspension was diluted with PBS to achieve the target range of 10^5-10^6 CFU/mL and used to inoculate the slides containing antibacterial coatings.
Xylene/methanol (5:1 by weight) is used to dissolve the silver surfactants to facilitate homogeneously mixing with the alkyd resin composition.
A minus sign (−) denotes no growth, a plus sign (+) denotes confluent growth, and a capital P (P) denotes […].
Xylene/methanol (5:1 by weight) is used to dissolve the silver surfactants to facilitate homogeneously mixing with the acrylic resin composition.
The same laboratory experimental solvent based acrylic paint described in Example 34 is used to challenge E. coli by adding various levels of the invention silver anionic surfactants as described in Example 34.
A commercially available 2K epoxy resin paint is obtained from a local paint store (Sherwin Williams High Solids Epoxy Tile Clad HS; Part A B62WC11; Part B B60VZ75, The Sherwin Williams Company) and the same silver anionic surfactants described in Example 35 are used to prepare test coatings on microscope slides containing various levels of silver ion. These surfactants are dissolved in xylene/methanol (5:1 by weight) to facilitate their quantitative addition to the coating mixture.

The test system of test [3] is S. aureus. The format is cell-based, Staphylococcus aureus. Conditions: laboratory acrylic clearcoat, 24 h contact time. An excerpt:
A laboratory experimental solvent based acrylic paint is formulated and then used to challenge S. aureus by adding various levels of the invention silver anionic surfactants as described in Example 33. A binder is made by solution polymerization of butyl acrylate (25% w/w), methylmethacrylate (73.5% w/w), and methacrylic acid (1.5% w/w) in amylacetate using thermal initiation. This solution polymer is then used to make a 60% solids clearcoat binder in xylene/methanol (5:1 by weight). The silver anionic surfactants are dissolved in this same xylene/methanol mixture prior to addition to the clearcoat.

[4] abbreviates: after 12 and 24 hours of exposure, polyurethane coated slides.

Values joined by “and” are separate entries in the source; they are usually repeats but may differ in a detail not shown here. Equal entries are not always repeated. Where two headings read alike, the source gives them in different places.

In the case of `CCCCCCCCCCCCCOC(=O)CC(C(=O)OCCCCCCCCCCCCC)S(=O)(=O)[O-].[Na+]` (stereo not shown) [Compound S6], the “No Growth(−)/Full Growth(+), replicate columns” value in the test with Staphylococcus aureus (Staphylococcus aureus strain ATCC6538) was “+”; in the test on Staphylococcus aureus (Staphylococcus aureus strain EM24/ATCC25923), “+”; in the test with Streptococcus viridans it was “+”; in the test on Streptococcus bovis it was “−”; in the test on Streptococcus pyogenes, “−”; in the test on Streptococcus agalactiae, “− (2×) and +”. Besides, the “No Growth(−)/Full Growth(+), replicate columns” value was “+” in the test with Micrococcus luteus; “+ (2×) and −” in the test on Bacillus subtilis (Bacillus subtilis strain ATCC33); “− (2×) and +” in the test on Bacillus subtilis (Bacillus subtilis strain EM27); “+” in [1]; “+” in the test on Enterococcus fecalis (Enterococcus fecalis strain EM19 (first listing)); “+” with Enterococcus fecalis (Enterococcus fecalis strain EM19 (second listing)).

In the case of `CCCCC(CC)COC(=O)CC(C(=O)OCC(CC)CCCC)S(=O)(=O)[O-].[Na+]` (stereo not shown) [NaAOT, Sodium bis(2-ethylhexyl)sulfosuccinate], in the test with Serratia marcescens, the “Effect on Serratia marcescens” value is “except for Serratia marcescens”. Besides, the “Killing of B. subtilis” value in the test on B. subtilis (setting [4]) is reported as “killed all”. Also, the “CFU/mL B. subtilis” value in the test on B. subtilis (exposure 12 hours) and in the test on B. subtilis (exposure 24 hours) was 0 CFU/mL each time. In addition, the “Killing of S. aureus” value in the test with S. aureus [2] (setting [4]) was “killed all”. In addition, the “CFU/mL S. aureus” value in the test on S. aureus [2] (exposure 12 hours) and in the test on S. aureus [2] (exposure 24 hours) was 0 CFU/mL in each case.

Consider “silver linearalkanebenzene sulfonate [AgLABS]”, for which the “E. coli growth on coating” value with E. coli (alkyd resin paint, 0.0012 weight % Ag in coating) was “+”; in the test on E. coli (alkyd resin paint, 0.003 weight % Ag in coating), “+”; in the test on E. coli (alkyd resin paint, 0.006 weight % Ag in coating), “+”; in the test on E. coli (alkyd resin paint, 0.012 weight % Ag in coating) it was “+”; in the test on E. coli (alkyd resin paint, 0.03 weight % Ag in coating), “−”; in the test on E. coli (alkyd resin paint, 0.06 weight % Ag in coating), “−”. The “E. coli growth on coating” value is reported as “−” with E. coli (alkyd resin paint, 0.12 weight % Ag in coating); “+” in the test with E. coli (commercial 2K epoxy paint, 0.0012 weight % Ag in coating); “+” in the test with E. coli (commercial 2K epoxy paint, 0.003 weight % Ag in coating); “+” in the test with E. coli (commercial 2K epoxy paint, 0.006 weight % Ag in coating); “+” in the test with E. coli (commercial 2K epoxy paint, 0.012 weight % Ag in coating); “−” with E. coli (commercial 2K epoxy paint, 0.03 weight % Ag in coating). The “E. coli growth on coating” value in the test on E. coli (commercial 2K epoxy paint, 0.06 weight % Ag in coating) is on record as “−”; in the test on E. coli (commercial 2K epoxy paint, 0.12 weight % Ag in coating), “−”; with E. coli (commercial solvent borne acrylate paint, 0.0012 weight % Ag in coating), “+”; in the test with E. coli (commercial solvent borne acrylate paint, 0.003 weight % Ag in coating), “+”; in the test on E. coli (commercial solvent borne acrylate paint, 0.006 weight % Ag in coating) it was “+”; with E. coli (commercial solvent borne acrylate paint, 0.012 weight % Ag in coating), “+”. Further, the “E. coli growth on coating” value with E. coli (commercial solvent borne acrylate paint, 0.06 weight % Ag in coating) was “−”; with E. coli (commercial solvent borne acrylate paint, 0.12 weight % Ag in coating), “−”; with E. coli (laboratory solvent borne acrylate paint, 0.0012 weight % Ag in coating), “+”; in the test on E. coli (laboratory solvent borne acrylate paint, 0.003 weight % Ag in coating), “+”; in the test on E. coli (laboratory solvent borne acrylate paint, 0.006 weight % Ag in coating) it was “+”; in the test with E. coli (laboratory solvent borne acrylate paint, 0.012 weight % Ag in coating) it was “+”. The “E. coli growth on coating” value with E. coli (laboratory solvent borne acrylate paint, 0.06 weight % Ag in coating) is “−”; in the test with E. coli (laboratory solvent borne acrylate paint, 0.12 weight % Ag in coating), “−”. For the same compound, the “Silver level giving complete inhibition of growth” value with E. coli (commercial 2K epoxy paint) was determined as 0.03 % w/w. For the same compound, the “Silver level partially effective” value in the test on E. coli (commercial solvent borne acrylic paint) is reported as 0.03 % Ag w/w. Further, the “Silver level with partial inhibition” value in the test with E. coli (laboratory solvent based acrylic paint) stood at 0.03%. Also, the “Silver level with partial growth” value in the test with S. aureus [3] is 0.012 % Ag w/w and 0.006 % Ag w/w.
